The conditions of the series: lacquer, 1200 h. Here is the method: Using the above formulation with 5% Econazole and 53% ethanol, stability testing was performed. […] In addition, gas chromatography quantitative analysis was conducted on samples stored in glass containers for 50 days at 40° C./75%RH at varying pH (5.2, 6.83, 12.2; by addition of acid or base, as necessary).
The analytical test procedure involves a simple direct dilution and injection method for determining levels of both antifungal agent and enhancer compound in the same chromatogram, i.e., without separation steps. […] Specifically, a Hewlett-Packard Model 5890 Chromatograph with a Hewlett-Packard 50+(crosslinked 50% phenylmethylsiloxane), 30 m, 0.32 mm ID, 0.50μ film (Cat. #19091L) column and Model 7673 Autoinjector, operating in split mode (split flow 0.7 mL/min; split ratio 0.652:1), using methanol as wash solvent and hexanophenone as internal standard, was used for the analysis. In Table 2 the results are reported for the average of six injections.

Like-named read-outs stand apart in the source and are kept apart here.

Turning to `Clc1ccc(COC(Cn2ccnc2)c2ccc(Cl)cc2Cl)cc1` (stereo not drawn) [Econazole], the “Econazole Assay” value stood at 94.29% (pH 5.2), 96.67% (pH 6.83) and 97.60% (pH 12.2).
Regarding `CCCCCCCCCC1OCCO1` [SEPA, 2-n-nonyl-1,3-dioxolane], the SEPA assay runs as follows: (pH 5.2) 93.85%; (pH 6.83) 98.41%; (pH 12.2) 99.36%.

The record behind these values is US6224887A, “Antifungal nail lacquer and method using same” (MacroChem Corporation, priority 1999, dated 2001).
